Measured values as given in ChEMBL document CHEMBL5338791, “Discovery of Novel 1,3-Diphenylpyrazine Derivatives as Potent S-Phase Kinase-Associated Protein 2 (Skp2) Inhibitors for the Treatment of Cancer” (J Med Chem, 2023).
Calls of active or inactive are those of the source. The calls are words filed in the database; no cut-off is given here.

Key:
PC-3 [1] = assay: Upregulation of p27 level in human PC-3 cells upto 10 uM by Western blot analysis; type: functional, cell-based; details: time 48.0 hrs, TDE = time-dependent effect
[2] = target: S-phase kinase-associated protein 2/Cyclin-dependent kinases regulatory subunit 1/S-phase kinase-associated protein 1 (Homo sapiens, UniProt Q13309); assay: Inhibition of GST-tagged Skp2/Skp1 (unknown origin)/His6-tagged Cks1 (unknown origin) interaction preincubated with Skp2/Skp1 for 10 mins followed by Cks1 addition measured after 20 mins by HTRF assay; type: protein assay
Sequence of S-phase kinase-associated protein 2/Cyclin-dependent kinases regulatory subunit 1/S-phase kinase-associated protein 1 (P61024 whole entry): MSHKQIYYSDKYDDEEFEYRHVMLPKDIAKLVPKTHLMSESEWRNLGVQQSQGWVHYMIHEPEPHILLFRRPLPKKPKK
Sequence of S-phase kinase-associated protein 2/Cyclin-dependent kinases regulatory subunit 1/S-phase kinase-associated protein 1 (Q13309 whole entry): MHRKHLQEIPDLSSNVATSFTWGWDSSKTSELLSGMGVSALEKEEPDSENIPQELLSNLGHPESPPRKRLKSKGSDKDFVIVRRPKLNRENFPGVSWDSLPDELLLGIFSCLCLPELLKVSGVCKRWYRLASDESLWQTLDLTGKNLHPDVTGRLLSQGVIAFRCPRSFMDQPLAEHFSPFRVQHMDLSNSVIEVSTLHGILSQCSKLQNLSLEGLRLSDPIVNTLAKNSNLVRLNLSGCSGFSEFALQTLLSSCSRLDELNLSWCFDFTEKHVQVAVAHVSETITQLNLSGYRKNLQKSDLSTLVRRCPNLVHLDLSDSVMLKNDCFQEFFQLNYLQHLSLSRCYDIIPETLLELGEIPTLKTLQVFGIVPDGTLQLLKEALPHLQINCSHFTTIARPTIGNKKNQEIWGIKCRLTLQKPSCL
Sequence of S-phase kinase-associated protein 2/Cyclin-dependent kinases regulatory subunit 1/S-phase kinase-associated protein 1 (P63208 whole entry, further chain): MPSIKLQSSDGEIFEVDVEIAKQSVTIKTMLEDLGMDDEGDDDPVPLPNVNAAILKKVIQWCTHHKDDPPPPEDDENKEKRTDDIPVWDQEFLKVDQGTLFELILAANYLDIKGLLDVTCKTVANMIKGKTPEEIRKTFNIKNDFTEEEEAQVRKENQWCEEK

[3] = Antitumor activity against human EC1 cells assessed as cell growth inhibition incubated for 72 hrs by MTT assay; type: functional, cell-based; details: EC1, 72 h
NCI-H1299 = assay: Antitumor activity against human NCI-H1299 cells overexpressing Skp2 assessed as cell growth inhibition incubated for 72 hrs by MTT assay; type: functional, cell-based; details: NCI-H1299, 72 h
PC-9 = assay: Antitumor activity against human PC-9 cells overexpressing Skp2 assessed as cell growth inhibition incubated for 72 hrs by MTT assay; type: functional, cell-based; details: PC-9, 72 h
MGC-803 [4] = assay: Antitumor activity against human MGC-803 cells overexpressing Skp2 assessed as cell growth inhibition incubated for 72 hrs by MTT assay; type: functional, cell-based; details: MGC-803, 72 h
A2780 = assay: Antitumor activity against human A2780 cells with low Skp2 expression assessed as cell growth inhibition incubated for 72 hrs by MTT assay; type: functional, cell-based; details: A2780, 72 h
MGC-803 [5] = assay: Upregulation of p27 level in human MGC-803 cells upto 10 uM by Western blot analysis; type: functional, cell-based; details: time 48.0 hrs, TDE = time-dependent effect
PC-3 [6] = assay: Upregulation of p21 level in human PC-3 cells at 10 uM incubated upto 48 hrs by Western blot analysis; type: functional, cell-based
MGC-803 [7] = assay: Upregulation of p21 level in human MGC-803 cells at 10 uM incubated upto 48 hrs by Western blot analysis; type: functional, cell-based
MGC-803 [8] = assay: Induction of cell cycle arrest in human MGC-803 cells assessed as accumulation of cells at S phase at 5 uM incubated for 48 hrs by flow cytometry (reference value: 22.72 %); type: functional
PC-3 [9] = assay: Induction of cell cycle arrest in human PC-3 cells assessed as accumulation of cells at G2 phase at 10 uM incubated for 6 hrs by flow cytometry (reference value: 19.34 %); type: functional
PC-3 [10] = assay: Induction of cell cycle arrest in human PC-3 cells assessed as accumulation of cells at G1 phase at 10 uM incubated for 12 hrs by flow cytometry (reference value: 56.81 %); type: functional
PC-3 [11] = assay: Induction of cell cycle arrest in human PC-3 cells assessed as accumulation of cells at S phase at 10 uM incubated for 24 hrs by flow cytometry (reference value: 19.7 %); type: functional
PC-3 [12] = assay: Induction of cell cycle arrest in human PC-3 cells assessed as accumulation of cells at G2 phase at 10 uM incubated for 36 hrs by flow cytometry (reference value: 19.34 %); type: functional
MGC-803 [13] = assay: Induction of cell cycle arrest in human MGC-803 cells assessed as accumulation of cells at G1 phase at 10 uM incubated for 48 hrs by flow cytometry (reference value: 57.09 %); type: functional
PC-3 [14] = assay: Induction of apoptosis in human PC-3 cells assessed as nuclear fragmentation incubated for 48 hrs; type: functional, cell-based; details: dose <= 10.0 µM
MGC-803 [15] = assay: Induction of apoptosis in human MGC-803 cells assessed as cell shrinkage incubated for 48 hrs; type: functional, cell-based; details: dose <= 10.0 µM
PC-3 [16] = assay: Induction of apoptosis in human PC-3 cells assessed as viable cells at 2.5 uM incubated for 48 hrs by annexin V-FITC/PI staining based flow cytometry (reference value: 98.6 %); type: functional; details: read-out: Activity
PC-3 [17] = assay: Induction of apoptosis in human PC-3 cells assessed as late apoptotic cells at 5 uM incubated for 48 hrs by annexin V-FITC/PI staining based flow cytometry (reference value: 0.45 %); type: functional
PC-3 [18] = assay: Induction of apoptosis in human PC-3 cells assessed as viable cells at 10 uM incubated for 48 hrs by annexin V-FITC/PI staining based flow cytometry (reference value: 98.6 %); type: functional; details: read-out: Activity
PC-3 [19] = assay: Induction of apoptosis in human PC-3 cells assessed as late apoptotic cells at 10 uM incubated for 48 hrs by annexin V-FITC/PI staining based flow cytometry (reference value: 0.45 %); type: functional
PC-3 [20] = assay: Induction of apoptosis in human PC-3 cells assessed as necrotic cells at 10 uM incubated for 48 hrs by annexin V-FITC/PI staining based flow cytometry (reference value: 0.14 %); type: functional
MGC-803 [21] = assay: Induction of apoptosis in human MGC-803 cells assessed as early apoptotic cells at 2.5 uM incubated for 48 hrs by annexin V-FITC/PI staining based flow cytometry (reference value: 0.21 %); type: functional
MGC-803 [22] = assay: Induction of apoptosis in human MGC-803 cells assessed as late apoptotic cells at 2.5 uM incubated for 48 hrs by annexin V-FITC/PI staining based flow cytometry (reference value: 0.95 %); type: functional
MGC-803 [23] = assay: Induction of apoptosis in human MGC-803 cells assessed as viable cells at 10 uM incubated for 48 hrs by annexin V-FITC/PI staining based flow cytometry (reference value: 98 %); type: functional; details: read-out: Activity
MGC-803 [24] = assay: Induction of apoptosis in human MGC-803 cells assessed as early apoptotic cells at 10 uM incubated for 48 hrs by annexin V-FITC/PI staining based flow cytometry (reference value: 0.21 %); type: functional
MGC-803 [25] = assay: Induction of apoptosis in human MGC-803 cells assessed as late apoptotic cells at 10 uM incubated for 48 hrs by annexin V-FITC/PI staining based flow cytometry (reference value: 0.95 %); type: functional
[26] = Toxicity in NOD-SCID mouse model xenografted with human MGC-803 cells assessed as body weight change at 10 to 50 mg/kg, IG administered once every 2 days for 21 days; type: organism-based; details: in vivo, po, 504 h, dose 10-50 mg/kg, time 21 day
[27] = Toxicity in mouse assessed as decrease in total protein level at 10 to 50 mg/kg; type: organism-based; details: in vivo, dose 10-50 mg/kg
[28] = Toxicity in mouse assessed as decrease in platelet level at 10 to 50 mg/kg; type: organism-based; details: dose 10-50 mg/kg
[29] = Metabolic stability in human liver microsome assessed as half life at 20 umol/L preincubated for 5 mins followed by NADPH addition measured upto 60 mins by LC-MS/MS analysis; type: ADME; details: liver microsomes, dose 20 µmol/L, time < 65 min
[30] = Metabolic stability in mouse liver microsome assessed as half life at 20 umol/L preincubated for 5 mins followed by NADPH addition measured upto 60 mins by LC-MS/MS analysis; type: ADME; details: liver microsomes, dose 20 µmol/L, time < 65 min
[31] = Metabolic stability in mouse liver S9 fraction assessed as half life at 20 umol/L preincubated for 5 mins followed by NADPH addition measured upto 60 mins by LC-MS/MS analysis; type: ADME, subcellular; details: dose 20 µmol/L, time < 65 min
[32] = AUC (infinity) in plasma of NOD-SCID mouse model xenografted with human PC-3 cells at 25 mg/kg, IG measured upto 48 hrs by LC-MS/MS analysis; type: ADME, organism-based; design: time < 48 hrs, dose 25 mg/kg, route ig; details: po
[33] = AUC (infinity) in tumor of NOD-SCID mouse model xenografted with human PC-3 cells at 25 mg/kg, IG measured upto 48 hrs by LC-MS/MS analysis; type: ADME, organism-based, Neoplasm; design: dose 25 mg/kg, time < 48 hrs, route ig; details: in vivo, po

Q: Which Activity (PC-3 [1]) does the source give for `O=C(CCl)NC1CCN(c2cnc(-c3ccccc3)c(-c3ccccc3)n2)CC1` here?
A: Its Activity is “Tde”.

Q: And the IC50 [2]?
A: Its IC50 is 2.8 µM.

Q: What about the IC50 [3] of the same compound?
A: The IC50 was 7 µM.

Q: And the IC50 (NCI-H1299)?
A: Its IC50 is 3.6 µM.

Q: What about the IC50 (PC-9) of the same compound?
A: Its IC50 is 8.1 µM.

Q: And the IC50 (MGC-803 [4])?
A: Its IC50 is 7 µM.

Q: What about the IC50 (A2780) of the same compound?
A: The IC50 was 14.3 µM.

Q: And the Activity (MGC-803 [5])?
A: Its Activity is “Tde”.

Q: What about the Activity (PC-3 [6]) of the same compound?
A: Its Activity is “Active”.

Q: And the Activity (MGC-803 [7])?
A: The Activity was “Active”.

Q: What about the Activity (MGC-803 [8]) of the same compound?
A: The Activity was 35.78%.

Q: What about the Activity (PC-3 [9]) of the same compound?
A: The Activity was 19.87%.

Q: And the Activity (PC-3 [10])?
A: The Activity was 44.95%.

Q: What about the Activity (PC-3 [11]) of the same compound?
A: The Activity was 38.52%.

Q: What about the Activity (PC-3 [12]) of the same compound?
A: Its Activity is 20.75%.

Q: And the Activity (MGC-803 [13])?
A: The Activity was 35.53%.

Q: And the Activity (PC-3 [14])?
A: The Activity was “Dose-Dependent Effect”.

Q: And the Activity (MGC-803 [15])?
A: The Activity was “Dose-Dependent Effect”.

Q: And the viability at 2.5 µM (PC-3 [16])?
A: Its viability at 2.5 µM is 92.2%.

Q: And the Activity (PC-3 [17])?
A: Its Activity is 12%.

Q: What about the viability at 10 µM (PC-3 [18]) of the same compound?
A: The viability at 10 µM was 58.6%.

Q: What about the Activity (PC-3 [19]) of the same compound?
A: The Activity was 27.9%.

Q: And the Activity (PC-3 [20])?
A: Its Activity is 13.2%.

Q: What about the Activity (MGC-803 [21]) of the same compound?
A: The Activity was 2.85%.

Q: And the Activity (MGC-803 [22])?
A: Its Activity is 6.57%.

Q: What about the viability at 10 µM (MGC-803 [23]) of the same compound?
A: Its viability at 10 µM is 66.9%.

Q: What about the Activity (MGC-803 [24]) of the same compound?
A: The Activity was 3.41%.

Q: And the Activity (MGC-803 [25])?
A: The Activity was 24.9%.

Q: What about the Activity [26] of the same compound?
A: Its Activity is “Non-Toxic”.

Q: And the Activity [27]?
A: The Activity was “Toxic”.

Q: What about the Activity [28] of the same compound?
A: Its Activity is “Toxic”.

Q: What about the half-life at 20 µM [29] of the same compound?
A: The half-life at 20 µM was 66 min.

Q: And the half-life at 20 µM [30]?
A: The half-life at 20 µM was 15.3 min.

Q: What about the half-life at 20 µM [31] of the same compound?
A: The half-life at 20 µM was 16.5 min.

Q: What about the AUC(0-inf) [32] of the same compound?
A: The AUC(0-inf) was 3550 ng·h/mL.

Q: What about the AUC [33] of the same compound?
A: Its AUC is 2636 ng·h/g.
